Assay results taken from patent US20250230193A1, “CYCLIC COMPOUND HAVING SELECTIVE KRAS INHIBITORY EFFECT ON HRAS AND NRAS” (CHUGAI SEIYAKU KABUSHIKI KAISHA, priority 2022, published 2025).
Read-outs that look alike come from different tables or passages of the source.

Key:
[1] = target: GDP-bound NRAS wild-type protein (Homo sapiens, UniProt P01111); assay: Binding to NRAS by surface plasmon resonance (SPR), Single Cycle Kinetics; conditions: SPR; for NRAS/KRAS (ratio of KD value for GDP-bound NRAS wild-type protein to KD value for KRAS): KD ratio class
Sequence of GDP-bound NRAS wild-type protein (P01111 whole entry): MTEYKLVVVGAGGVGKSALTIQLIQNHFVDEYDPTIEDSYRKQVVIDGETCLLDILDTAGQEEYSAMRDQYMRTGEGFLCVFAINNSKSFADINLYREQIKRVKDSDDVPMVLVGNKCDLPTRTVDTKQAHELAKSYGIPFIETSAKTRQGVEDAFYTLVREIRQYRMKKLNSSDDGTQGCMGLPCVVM

[2] = target: GDP-bound HRAS wild-type protein (Homo sapiens, UniProt P01112); assay: Binding to HRAS by surface plasmon resonance (SPR), Single Cycle Kinetics; conditions: SPR; for HRAS/KRAS (ratio of KD value for GDP-bound HRAS wild-type protein to KD value for KRAS): KD ratio class
Sequence of GDP-bound HRAS wild-type protein (P01112 whole entry): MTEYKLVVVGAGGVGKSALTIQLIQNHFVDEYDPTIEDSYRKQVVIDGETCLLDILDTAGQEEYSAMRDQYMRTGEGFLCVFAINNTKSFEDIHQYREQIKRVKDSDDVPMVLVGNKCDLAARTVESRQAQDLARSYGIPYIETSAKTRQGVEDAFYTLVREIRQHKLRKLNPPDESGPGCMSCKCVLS

[3] = target: GDP-bound KRAS wild-type protein (Homo sapiens, UniProt P01116); assay: Binding to KRAS by surface plasmon resonance (SPR), Single Cycle Kinetics; conditions: GDP-bound KRAS wild-type protein
[4] = system: human lung cancer strain NCI-H441
[5] = read-out: NCI-H441 IC50, NCI-H441 cells, 4 days, CellTiter-Glo
[6] = KD ratio, GDP-bound NRAS wild-type vs GDP-bound KRAS wild-type
[7] = KD ratio, GDP-bound HRAS wild-type vs GDP-bound KRAS wild-type

Row | Kd ([3]; SPR, Single Cycle Kinetics) [nM] | IC50 [4, 5] [nM] | Kd ([3]; SPR Single Cycle Kinetics, 1:1 binding model) [nM] | IC50 [4] [nM] | SMILES | NRAS/KRAS (ratio of KD value for GDP-bound NRAS wild-type protein to KD value for KRAS) [1] | HRAS/KRAS (ratio of KD value for GDP-bound HRAS wild-type protein to KD value for KRAS) [2] | NRAS/KRAS (ratio of KD value for NRAS to KD value for KRAS) [1, 6] | HRAS/KRAS (ratio of KD value for HRAS to KD value for KRAS) [2, 7] | NRAS/KRAS (ratio of KD value with respect to NRAS to KD value with respect to KRAS) [1, 6] | HRAS/KRAS (ratio of KD value with respect to HRAS to KD value with respect to KRAS) [2, 7]
1 | 0.15 | 30.4 |  |  | CC[C@H](C)[C@@H]1NC(=O)[C@H](CC)N(C)C(=O)C[C@@H](C(=O)N(C)C)N(C)C(=O)[C@H](C2CCCC2)N(C)C(=O)C2(CCC2)NC(=O)[C@@H]2C[C@H](C)CN2C(=O)[C@H](CCc2cc(F)c(C(F)(F)F)c(F)c2)NC(=O)CN(C)C(=O)[C@H](CC2CCC(F)(F)CC2)N2CC/C=C\C[C@@H](C2=O)N(C)C(=O)CN(C)C1=O [PP1457] | A (a compound having 10 or more and less than 20 is denoted as A) | A (a compound having 10 or more and less than 20 is denoted as A) |  |  |  | 
2 | 0.11 | 34.5 |  |  | CC[C@H](C)[C@@H]1NC(=O)[C@H](CC2CC2)N(C)C(=O)C[C@@H](C(=O)N2CCCC2)N(C)C(=O)[C@H](C2CCCC2)N(C)C(=O)C2(CCC2)NC(=O)[C@@H]2C[C@H](C)CN2C(=O)[C@H](CCc2cc(F)c(C(F)(F)F)c(F)c2)NC(=O)CN(C)C(=O)[C@H](Cc2ccc(C(F)(F)F)cc2)N2CC/C=C\C[C@@H](C2=O)N(C)C(=O)CN(C)C1=O [PP1510] | AA (a compound having 20 or more is denoted as AA) | A (a compound having 10 or more and less than 20 is denoted as A) |  |  |  | 
3 |  |  | 0.039 | 1.9 | CCO[C@@H]1C[C@H]2C(=O)NC3(CCC3)C(=O)N(C)[C@@H](C3CCCC3)C(=O)N(C)[C@H](C(=O)N(C)CC)CC(=O)N(C)[C@H]3CCCC/C=C/c4ccc(cc4)C[C@@H](C(=O)N(C)CC(=O)N[C@@H](CCc4ccc(C(F)(F)F)c(OC)c4)C(=O)N2C1)N1CC/C=C\C[C@@H](C1=O)N(C)C(=O)CN(C)C(=O)[C@H]([C@@H](C)CC)NC3=O [PP1828] |  |  | A (a compound having 10 or more and less than 20 is denoted as A) | B (a compound having 3 or more and less than 10 is denoted as B) |  | 
4 | 0.13 | 48.3 |  |  | CCO[C@@H]1C[C@H]2C(=O)NC3(CCC3)C(=O)N(C)[C@@H](C3CCCC3)C(=O)N(C)[C@H](C(=O)N3CCCC3)CC(=O)N(C)[C@@H](CC)C(=O)N[C@@H]([C@@H](C)CC)C(=O)N(C)CC(=O)N(C)[C@H]3C/C=C\CCN(C3=O)[C@@H](CC3CCC(F)(F)CC3)C(=O)N(C)CC(=O)N[C@@H](CCc3cc(F)c(C(F)(F)F)c(F)c3)C(=O)N2C1 [PP1442] | A (a compound having 10 or more and less than 20 is denoted as A) | A (a compound having 10 or more and less than 20 is denoted as A) |  |  |  | 
5 | 0.14 | 33.2 |  |  | CCO[C@@H]1C[C@H]2C(=O)NC3(CCC3)C(=O)N(C)[C@@H](C3CCCC3)C(=O)N(C)[C@H](C(=O)N(C)C)CC(=O)N(C)[C@@H](CC)C(=O)N[C@@H]([C@@H](C)CC)C(=O)N(C)CC(=O)N(C)[C@H]3C/C=C\CCN(C3=O)[C@@H](CC3CCCCC3)C(=O)N(C)CC(=O)N[C@@H](CCc3cc(F)c(C(F)(F)F)c(F)c3)C(=O)N2C1 [PP1466] | A (a compound having 10 or more and less than 20 is denoted as A) | A (a compound having 10 or more and less than 20 is denoted as A) |  |  |  | 
6 | 0.046 | 10.8 |  |  | CCO[C@@H]1C[C@H]2C(=O)NC3(CCC3)C(=O)N(C)[C@@H](C3CCCC3)C(=O)N(C)[C@H](C(=O)N(C)C)CC(=O)N(C)[C@@H](COCC(F)(F)F)C(=O)N[C@@H]([C@@H](C)CC)C(=O)N(C)CC(=O)N(C)[C@H]3C/C=C\CCN(C3=O)[C@@H](Cc3ccc(C(F)(F)F)cc3)C(=O)N(C)CC(=O)N[C@@H](CCc3cc(F)c(C(F)(F)F)c(F)c3)C(=O)N2C1 [PP1267] | A (a compound having 10 or more and less than 20 is denoted as A) | A (a compound having 10 or more and less than 20 is denoted as A) |  |  |  | 
7 | 0.34 |  |  | 35.9 | CCO[C@@H]1C[C@H]2C(=O)NC3(CCC3)C(=O)N(C)[C@@H](C3CCCC3)C(=O)N(C)[C@H](C(=O)N3CCOCC3)CC(=O)N(C)[C@@H](CC(C)C)C(=O)N[C@@H]([C@@H](C)CC)C(=O)N(C)CC(=O)N(C)[C@H]3CCCCCN(C3=O)[C@@H](Cc3ccc(F)cc3F)C(=O)N(C)CC(=O)N[C@@H](CCc3cc(F)c(C(F)(F)F)c(F)c3)C(=O)N2C1 [PP0916] |  |  |  |  | B (a compound having 3 or more and less than 10 is denoted as B) | B (a compound having 3 or more and less than 10 is denoted as B)
8 | 2.3 | 64.6 |  |  | CCO[C@@H]1C[C@H]2C(=O)NC3(CCC3)C(=O)N(C)[C@@H](C(CC)CC)C(=O)N(C)C(C(C)C)CC(=O)N(C)[C@@H](CC3CC3)C(=O)N[C@@H]([C@@H](C)CC)C(=O)N(C)CC(=O)N(C)[C@H]3C/C=C\CCN(C3=O)[C@@H](Cc3ccc(C(F)(F)F)cc3)C(=O)N(C)CC(=O)N[C@@H](CCc3cc(F)c(C(F)(F)F)c(F)c3)C(=O)N2C1 (some centres unmarked) [PP1595] | A (a compound having 10 or more and less than 20 is denoted as A) | A (a compound having 10 or more and less than 20 is denoted as A) |  |  |  | 
9 | 0.045 | 12.1 |  |  | CCO[C@@H]1C[C@H]2C(=O)NC3(CCC3)C(=O)N(C)[C@@H](C3CCCC3)C(=O)N(C)[C@H](C(=O)N(C)C)CC(=O)N(C)[C@@H](COC3CC3)C(=O)N[C@@H]([C@@H](C)CC)C(=O)N(C)CC(=O)N(C)[C@H]3C/C=C\CCN(C3=O)[C@@H](Cc3ccc(C(F)(F)F)cc3)C(=O)N(C)CC(=O)N[C@@H](CCc3cc(F)c(C(F)(F)F)c(F)c3)C(=O)N2C1 [PP1268] | A (a compound having 10 or more and less than 20 is denoted as A) | A (a compound having 10 or more and less than 20 is denoted as A) |  |  |  | 
10 | 0.15 | 32.3 |  |  | CCC[C@H]1C(=O)N[C@@H]([C@@H](C)CC)C(=O)N(C)CC(=O)N(C)[C@H]2C/C=C\CCN(C2=O)[C@@H](CC2CCCCC2)C(=O)N(C)CC(=O)N[C@@H](CCc2cc(F)c(C(F)(F)F)c(F)c2)C(=O)N2C[C@H](OCC)C[C@H]2C(=O)NC2(CCC2)C(=O)N(C)[C@@H](C2CCCC2)C(=O)N(C)[C@H](C(=O)N(C)C)CC(=O)N1C [PP1464] | A (a compound having 10 or more and less than 20 is denoted as A) | A (a compound having 10 or more and less than 20 is denoted as A) |  |  |  | 
11 | 0.076 | 12.8 |  |  | CCCCCC[C@H]1C(=O)N[C@@H]([C@@H](C)CC)C(=O)N(C)CC(=O)N(C)[C@H]2C/C=C\CCN(C2=O)[C@@H](Cc2ccc(C(F)(F)F)cc2)C(=O)N(C)CC(=O)N[C@@H](CCc2cc(F)c(C(F)(F)F)c(F)c2)C(=O)N2C[C@H](OCC)C[C@H]2C(=O)NC2(CCC2)C(=O)N(C)[C@@H](C2CCCC2)C(=O)N(C)[C@H](C(=O)N(C)C)CC(=O)N1C [PP1242] | A (a compound having 10 or more and less than 20 is denoted as A) | A (a compound having 10 or more and less than 20 is denoted as A) |  |  |  | 
